# Results published in US9573967B2, “N-heterocyclic carbene gold complexes with anticancer properties and methods of use thereof” (KING FAHD UNIVERSITY OF PETROLEUM AND MINERALS, priority 2015, dated 2017).
# Legend:
# Type in all cases: cell-based
# [1] = test system: HeLa (human cervical cancer) cell line; assay: In vitro cytotoxicity, MTT assay, HeLa; details: 24 h incubation with complex, read-out: IC50 values against HeLa cancer cell line
# Experimental: (§1) The in vitro cytotoxicity tests were carried out for the gold(I) precursor, labeled as complex 0 and the three synthesized complexes labeled as complex 1, 2 and 3 and compared with cisplatin (standard classical anticancer drug) against three human cancer cell lines, HCT15, HeLa and A549 using MTT assay. The dose dependent cytotoxic effect was obtained by the stipulated increase in concentrations of cisplatin and gold complexes 0-3 against the fixed number of human cancer cells. The IC50 concentration of cisplatin and complexes 0-3 for different human cancer cell lines was obtained from a curve between compound concentration and percentage viability of cells (FIGS. 5-10, Table 6).
# (§2) In phase contrast micrographs, a decreasing cell density and deformed cellular morphology could be observed with increasing concentration of complexes 0-3 (FIGS. 11-13). […] The IC50 concentrations of gold complexes were calculated from a separate curve between complex concentration and % viability of cells plotted in Microsoft Excel 2007 (graphs not shown) using MTT assay data and explained by logarithmic regression equations (equations not shown).
# (§3) The metal precursor (complex 0) and the three synthesized compounds 1-3 were evaluated for their in vitro cytotoxic activity against HCT15 (human cancer), HeLa (human cervical cancer) and A549 (human lung carcinoma) cell lines. […]
# [2] = test system: A549 (human lung carcinoma) cell line; assay: In vitro cytotoxicity, MTT assay, A549; details: 24 h incubation with complex, read-out: IC50 values against A549 cancer cell line
# Experimental: as §1, §2, §3
# [3] = test system: HCT15 (human cancer) cell line; assay: In vitro cytotoxicity, MTT assay, HCT15; details: for IC50: MTT assay, 24 h incubation with complex, read-out: IC50 values against HCT15 cancer cell line; for IC50 against HCT15 compared with cisplatin: in words
# Experimental: as §1
# In phase contrast micrographs, a decreasing cell density and deformed cellular morphology could be observed with increasing concentration of complexes 0-3 (FIGS. 11-13). The dose dependent decrease in cell density was further supported by assessment of decreasing percent cell viability in MTT assay (FIGS. 5-10). The IC50 concentrations of gold complexes were calculated from a separate curve between complex concentration and % viability of cells plotted in Microsoft Excel 2007 (graphs not shown) using MTT assay data and explained by logarithmic regression equations (equations not shown).
# The metal precursor (complex 0) and the three synthesized compounds 1-3 were evaluated for their in vitro cytotoxic activity against HCT15 (human cancer), HeLa (human cervical cancer) and A549 (human lung carcinoma) cell lines. The cells were seeded at 4×10^3 cells/well in 100 μL DMEM (Dulbecco's Modified Eagle's Medium) containing 10%. FBS (Fetal Bovine Serum) in 96-wells tissue culture plate and incubated for 72 h at 37° C., 5% CO2 in air and 90% relative humidity in CO2 incubator. After incubation, 100 μL of 50, 25, 12.5 and 6.25 μg/mL solutions of complexes (0-3), prepared in DMEM, were added to cells and the cultures were incubated for 24 h. The medium of wells was discarded and 100 μL DMEM containing MTT (3-(4,5-dimethylthiazol-2-yl)-2,5-diphenyltetrazolium bromide) (5 mg/mL) was added to the wells and incubated in CO2 incubator at 37° C. in dark for 4 h. After incubation, a purple colored formazan (artificial chromogenic dye, product of the reduction of water insoluble tetrazolium salts e.g., MMT by dehydrogenases and reductases) in the cells is produced and appeared as dark crystals in the bottom of the wells. The medium of culture was discarded from each well carefully to avoid disruption of monolayer and 100 μl of dimethyl sulfoxide (DMSO) was added in each well. […] The absorbance of the 96-wells plate was taken at 570 nm with Labsystems Multiskan EX-Enzyme-linked immunosorbent assay (EX-ELISA) reader against a reagent blank.
Molecule,IC50 [1] [µM],IC50 [2] [µM],IC50 [3] [µM],IC50 against HCT15 compared with cisplatin [3]
"1,3-Bis(2,6-di-isopropylphenyl)imidazol-2-ylidenegold(I)chloride [Complex 0]",172,180,122,–
"N.N.[Cl][Pt][Cl] [Cisplatin, cisplatin]",–,–,29.5,–
"CCN(CC)C(=S)[S][Au][CH]1N(c2c(C(C)C)cccc2C(C)C)C=CN1c1c(C(C)C)cccc1C(C)C [Complex 2, [Au(Ipr)(S2CN(C2H5)2)]]",–,–,–,moderate potency but better than cisplatin
"CC(C)c1cccc(C(C)C)c1N1C=CN(c2c(C(C)C)cccc2C(C)C)[CH]1[Au][S]C(=S)N(Cc1ccccc1)Cc1ccccc1 [Complex 3, [Au(Ipr)(S2CN(C7H7)2)]]",–,–,–,moderate potency but better than cisplatin
